Source: patent US20260184713A1, “KINASE INHIBITORS” (The United States of America, as represented by the …, priority 2022, published 2026)
Like-named read-outs stand apart in the source and are kept apart here.

Experiments:
Assay in all cases: HOTSPOT radiometric kinase assay
P70S6K = target: T1, P70S6K (Homo sapiens, UniProt P23443); type: biochemical; conditions: 10 μM ATP
T1 construct: purchased Reaction Biology Corp

PKCδ = target: T2, PKCδ (Homo sapiens, UniProt Q05655); type: biochemical
T2 construct: purchased Reaction Biology Corp

PKCη = target: T3, PKCη (Homo sapiens, UniProt P24723); type: biochemical
T3 construct: purchased Reaction Biology Corp

STK33 = target: T4, STK33 (Homo sapiens, UniProt Q9BYT3); type: biochemical; conditions: 10 μM ATP
T4 construct: purchased Reaction Biology Corp

CDK2 = target: T5, CDK2 (Homo sapiens, UniProt P24941); type: biochemical; conditions: 10 μM ATP
T5 construct: purchased Reaction Biology Corp

MPSK1 = target: T6, MPSK1 (Homo sapiens, UniProt O75716); type: biochemical; conditions: 10 μM ATP
T6 construct: purchased Reaction Biology Corp

CLK2 = target: T7, CLK2 (Homo sapiens, UniProt P49760); type: biochemical; conditions: 10 μM ATP
T7 construct: purchased Reaction Biology Corp

YSK1 = target: T8, YSK1 (Homo sapiens, UniProt O00506); type: biochemical; conditions: 50 nM, 10 μM ATP
T8 construct: purchased Reaction Biology Corp

DYRK4 = target: T9, DYRK4 (Homo sapiens, UniProt Q9NR20); type: biochemical; conditions: 10 μM ATP
T9 construct: purchased Reaction Biology Corp

MSK2 = target: T10, MSK2 (Homo sapiens, UniProt O75676); type: biochemical; conditions: 10 μM ATP
T10 construct: purchased Reaction Biology Corp

PKN3 = target: T11, PKN3 (Homo sapiens, UniProt Q6P5Z2); type: biochemical; conditions: 10 μM ATP
T11 construct: purchased Reaction Biology Corp

HASPIN = target: T12, HASPIN (Homo sapiens, UniProt Q8TF76); type: biochemical; conditions: 10 μM ATP
T12 construct: purchased Reaction Biology Corp

ERK1 = ERK1 (Homo sapiens, UniProt P27361)
RAF1 = target: T13, RAF1 (Homo sapiens, UniProt P04049, Y340D/Y341D); type: biochemical; conditions: 10 μM ATP
T13 construct: purchased Reaction Biology Corp

PKCθ = target: T14, PKCθ (Homo sapiens, UniProt Q04759); type: biochemical; conditions: 2 μM, 10 μM ATP
T14 construct: purchased Reaction Biology Corp

BMPR2 = target: T15, BMPR2 (Homo sapiens, UniProt Q13873); type: biochemical; conditions: 10 μM ATP
T15 construct: purchased Reaction Biology Corp

RSK2 = target: T16, RSK2 (Homo sapiens, UniProt P51812); type: biochemical; conditions: 10 μM ATP
T16 construct: purchased Reaction Biology Corp

ERBB2/HER2 = ERBB2/HER2 (Homo sapiens, UniProt P04626)
DYRK1B = DYRK1B (Homo sapiens, UniProt Q9Y463); type: biochemical
CDK9 = target: T17, CDK9 (Homo sapiens, UniProt P50750); type: biochemical; conditions: 50 nM, 10 μM ATP
T17 construct: purchased Reaction Biology Corp

BRAF = target: T18, BRAF (Homo sapiens, UniProt P15056); type: biochemical; conditions: 10 μM ATP
T18 construct: purchased Reaction Biology Corp

AKT1 = AKT1 (Homo sapiens, UniProt P31749)
DCAMKL1 = target: T19, DCAMKL1 (Homo sapiens, UniProt O15075); type: biochemical; conditions: 10 μM ATP
T19 construct: purchased Reaction Biology Corp

FLT1/VEGFR1 = FLT1/VEGFR1 (Homo sapiens, UniProt P17948)

AKT1, sequence (P31749 whole entry): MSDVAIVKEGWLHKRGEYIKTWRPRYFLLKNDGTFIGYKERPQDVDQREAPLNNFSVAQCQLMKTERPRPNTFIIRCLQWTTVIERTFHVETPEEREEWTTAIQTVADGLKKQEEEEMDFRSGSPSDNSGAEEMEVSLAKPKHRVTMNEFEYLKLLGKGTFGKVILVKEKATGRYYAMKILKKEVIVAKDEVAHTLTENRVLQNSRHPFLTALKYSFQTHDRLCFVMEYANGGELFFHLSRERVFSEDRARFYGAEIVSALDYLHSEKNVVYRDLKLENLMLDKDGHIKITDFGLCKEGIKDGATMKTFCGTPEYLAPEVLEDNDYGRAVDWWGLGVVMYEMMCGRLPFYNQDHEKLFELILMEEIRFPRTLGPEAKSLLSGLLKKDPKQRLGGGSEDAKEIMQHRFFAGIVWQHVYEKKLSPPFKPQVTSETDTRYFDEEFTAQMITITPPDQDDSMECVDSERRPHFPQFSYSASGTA
DYRK1B, sequence (Q9Y463 whole entry): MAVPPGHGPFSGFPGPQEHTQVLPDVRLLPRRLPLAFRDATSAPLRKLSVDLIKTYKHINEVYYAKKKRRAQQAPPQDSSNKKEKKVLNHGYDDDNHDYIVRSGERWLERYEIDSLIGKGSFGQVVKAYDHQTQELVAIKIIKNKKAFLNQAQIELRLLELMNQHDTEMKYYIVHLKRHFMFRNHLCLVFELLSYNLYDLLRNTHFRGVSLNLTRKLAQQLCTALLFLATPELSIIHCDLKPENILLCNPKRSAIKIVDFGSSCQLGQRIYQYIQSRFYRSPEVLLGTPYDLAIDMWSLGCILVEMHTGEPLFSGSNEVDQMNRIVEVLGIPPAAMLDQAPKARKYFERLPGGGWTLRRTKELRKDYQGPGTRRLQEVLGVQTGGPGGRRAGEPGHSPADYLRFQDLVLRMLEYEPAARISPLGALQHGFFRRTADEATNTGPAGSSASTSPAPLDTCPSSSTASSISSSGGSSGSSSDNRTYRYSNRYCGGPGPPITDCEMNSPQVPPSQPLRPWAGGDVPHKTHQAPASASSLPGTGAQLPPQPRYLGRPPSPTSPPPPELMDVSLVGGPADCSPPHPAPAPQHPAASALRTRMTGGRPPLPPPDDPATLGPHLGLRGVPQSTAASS
T2 sequence (Q05655 whole entry): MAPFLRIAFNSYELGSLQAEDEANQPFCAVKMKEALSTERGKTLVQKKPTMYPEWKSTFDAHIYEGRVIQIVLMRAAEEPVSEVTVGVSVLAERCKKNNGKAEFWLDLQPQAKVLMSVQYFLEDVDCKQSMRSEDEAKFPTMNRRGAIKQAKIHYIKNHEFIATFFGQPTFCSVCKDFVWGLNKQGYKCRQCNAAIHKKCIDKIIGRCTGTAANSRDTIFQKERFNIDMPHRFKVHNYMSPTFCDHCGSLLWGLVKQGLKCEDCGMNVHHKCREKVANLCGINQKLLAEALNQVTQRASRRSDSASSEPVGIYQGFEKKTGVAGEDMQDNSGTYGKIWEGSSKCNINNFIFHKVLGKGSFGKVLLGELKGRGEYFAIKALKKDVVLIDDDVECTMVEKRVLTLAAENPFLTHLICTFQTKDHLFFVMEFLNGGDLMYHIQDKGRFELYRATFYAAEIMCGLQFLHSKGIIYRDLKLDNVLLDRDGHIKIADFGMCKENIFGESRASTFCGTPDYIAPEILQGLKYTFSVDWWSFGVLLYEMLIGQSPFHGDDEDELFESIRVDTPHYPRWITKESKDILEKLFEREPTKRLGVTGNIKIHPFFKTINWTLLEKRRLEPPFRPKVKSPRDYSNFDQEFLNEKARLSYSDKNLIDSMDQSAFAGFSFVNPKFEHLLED
T3 sequence (P24723 whole entry): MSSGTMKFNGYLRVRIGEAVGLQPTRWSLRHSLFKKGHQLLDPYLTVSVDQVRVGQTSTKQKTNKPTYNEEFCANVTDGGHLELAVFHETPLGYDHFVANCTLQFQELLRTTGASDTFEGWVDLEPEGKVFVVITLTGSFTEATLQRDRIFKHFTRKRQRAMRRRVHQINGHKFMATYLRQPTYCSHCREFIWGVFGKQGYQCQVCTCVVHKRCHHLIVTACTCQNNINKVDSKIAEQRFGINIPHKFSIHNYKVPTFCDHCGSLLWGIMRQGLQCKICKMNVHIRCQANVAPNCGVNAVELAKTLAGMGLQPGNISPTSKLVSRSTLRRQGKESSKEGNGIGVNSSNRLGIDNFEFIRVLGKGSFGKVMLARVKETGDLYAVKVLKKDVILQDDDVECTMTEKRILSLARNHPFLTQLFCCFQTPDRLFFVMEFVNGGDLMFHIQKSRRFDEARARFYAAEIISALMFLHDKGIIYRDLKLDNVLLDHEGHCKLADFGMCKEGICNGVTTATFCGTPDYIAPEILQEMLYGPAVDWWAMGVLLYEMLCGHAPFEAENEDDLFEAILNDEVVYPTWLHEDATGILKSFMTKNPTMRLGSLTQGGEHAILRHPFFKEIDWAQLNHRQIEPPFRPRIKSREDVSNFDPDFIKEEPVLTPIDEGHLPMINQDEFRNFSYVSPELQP
T11 sequence (Q6P5Z2 whole entry): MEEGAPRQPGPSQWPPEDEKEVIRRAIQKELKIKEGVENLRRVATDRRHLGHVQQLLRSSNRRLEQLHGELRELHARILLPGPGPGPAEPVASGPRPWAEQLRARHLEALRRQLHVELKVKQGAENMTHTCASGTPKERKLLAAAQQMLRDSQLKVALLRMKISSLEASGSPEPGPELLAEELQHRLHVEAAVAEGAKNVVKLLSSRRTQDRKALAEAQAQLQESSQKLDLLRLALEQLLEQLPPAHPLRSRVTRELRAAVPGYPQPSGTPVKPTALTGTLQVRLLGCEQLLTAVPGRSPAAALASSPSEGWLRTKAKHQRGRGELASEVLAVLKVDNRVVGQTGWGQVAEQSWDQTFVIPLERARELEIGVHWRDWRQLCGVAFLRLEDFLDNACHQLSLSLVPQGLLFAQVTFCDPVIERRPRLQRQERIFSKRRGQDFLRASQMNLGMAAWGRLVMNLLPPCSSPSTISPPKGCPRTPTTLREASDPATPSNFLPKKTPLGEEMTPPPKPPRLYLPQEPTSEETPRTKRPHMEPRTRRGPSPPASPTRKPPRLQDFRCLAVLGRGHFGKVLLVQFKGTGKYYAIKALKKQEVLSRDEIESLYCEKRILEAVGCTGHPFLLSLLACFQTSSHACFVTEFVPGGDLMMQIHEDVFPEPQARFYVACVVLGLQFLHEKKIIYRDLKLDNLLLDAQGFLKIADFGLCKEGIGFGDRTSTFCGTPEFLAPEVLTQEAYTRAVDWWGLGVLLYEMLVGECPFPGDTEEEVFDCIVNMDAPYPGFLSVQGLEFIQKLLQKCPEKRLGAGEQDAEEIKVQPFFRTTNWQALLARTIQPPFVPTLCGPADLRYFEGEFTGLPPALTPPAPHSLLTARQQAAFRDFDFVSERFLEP
T13 sequence (P04049 306-648 Y340D/Y341D limits assumed): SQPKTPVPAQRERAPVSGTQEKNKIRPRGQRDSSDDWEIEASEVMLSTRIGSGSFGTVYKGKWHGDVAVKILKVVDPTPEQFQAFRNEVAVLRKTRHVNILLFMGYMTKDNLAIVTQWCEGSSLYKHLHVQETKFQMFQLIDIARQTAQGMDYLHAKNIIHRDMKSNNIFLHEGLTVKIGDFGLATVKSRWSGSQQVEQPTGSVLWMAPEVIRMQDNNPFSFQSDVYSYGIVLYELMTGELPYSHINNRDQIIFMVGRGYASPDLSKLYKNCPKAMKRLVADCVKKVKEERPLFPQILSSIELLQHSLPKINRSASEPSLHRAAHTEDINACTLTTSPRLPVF
T19 sequence (O15075 whole entry): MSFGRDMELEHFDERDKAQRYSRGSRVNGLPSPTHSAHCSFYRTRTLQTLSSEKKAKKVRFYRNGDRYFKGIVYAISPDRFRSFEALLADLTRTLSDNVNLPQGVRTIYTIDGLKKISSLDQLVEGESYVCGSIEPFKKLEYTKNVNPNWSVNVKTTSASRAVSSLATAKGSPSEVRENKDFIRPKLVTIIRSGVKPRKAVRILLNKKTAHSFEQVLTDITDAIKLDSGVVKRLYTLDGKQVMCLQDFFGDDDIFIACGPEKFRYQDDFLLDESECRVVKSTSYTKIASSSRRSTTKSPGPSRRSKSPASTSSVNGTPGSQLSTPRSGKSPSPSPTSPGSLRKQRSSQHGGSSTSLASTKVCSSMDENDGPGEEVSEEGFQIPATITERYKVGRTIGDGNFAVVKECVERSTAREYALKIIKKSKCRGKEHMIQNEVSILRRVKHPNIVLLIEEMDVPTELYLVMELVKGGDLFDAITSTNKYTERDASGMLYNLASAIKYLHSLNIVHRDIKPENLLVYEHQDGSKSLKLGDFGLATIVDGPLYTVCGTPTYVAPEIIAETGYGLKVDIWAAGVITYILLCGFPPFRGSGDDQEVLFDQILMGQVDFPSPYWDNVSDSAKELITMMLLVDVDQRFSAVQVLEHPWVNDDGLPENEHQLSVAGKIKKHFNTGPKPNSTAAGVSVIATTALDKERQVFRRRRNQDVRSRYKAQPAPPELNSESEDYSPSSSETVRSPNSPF
ERK1, sequence (P27361 whole entry): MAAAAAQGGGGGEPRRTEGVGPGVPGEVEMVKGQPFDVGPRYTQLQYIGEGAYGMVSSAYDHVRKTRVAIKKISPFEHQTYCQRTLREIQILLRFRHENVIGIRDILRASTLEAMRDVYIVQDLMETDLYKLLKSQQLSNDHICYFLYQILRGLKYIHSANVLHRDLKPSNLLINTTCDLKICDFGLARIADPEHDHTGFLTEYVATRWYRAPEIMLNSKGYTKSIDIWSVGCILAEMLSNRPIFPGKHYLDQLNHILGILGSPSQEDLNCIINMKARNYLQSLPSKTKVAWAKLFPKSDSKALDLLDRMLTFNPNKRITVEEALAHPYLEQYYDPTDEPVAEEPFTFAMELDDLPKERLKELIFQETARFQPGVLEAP

Cn1cncc1C1=CN(c2ncnc3nc[nH]c23)CCS1 [Compound 1, Aplithianine A] showed an inhibition at 0.05 µM (P70S6K; 50 nM) of 14%, an inhibition at 2 µM (P70S6K; 2 μM) of 87.3% and an inhibition at 0.05 µM (PKCδ; 50 nM, 10 μM ATP) of 12.6%. The inhibition at 2 µM (PKCδ; 2 μM, 10 μM ATP) was 81.1%, the IC50 (PKCδ; 10 μM ATP, read-out: PKCδ IC50) was 184 nM and the “PKCd Differential (as compared to PKG1a)” value (PKCδ; IC50 (kinase)/IC50 (PKG1a)) was 16.77. The IC50 (PKCδ; Table 4 dose-response, read-out: PKCd IC50 Values) was 191 nM, the inhibition at 0.05 µM (PKCη; 50 nM, 10 μM ATP) was 15.8% and the inhibition at 2 µM (PKCη; 2 μM, 10 μM ATP) was 83.6%. The IC50 (PKCη; 10 μM ATP, read-out: PKCη IC50) was 202 nM, the “PKCeta Differential (as compared to PKG1a)” value (PKCη; IC50 (kinase)/IC50 (PKG1a)) was 16.08 and the IC50 (PKCη; Table 4 dose-response, read-out: PKCeta IC50 Values) was 183 nM. It also gave an inhibition at 0.05 µM (STK33; 50 nM) of 23.6%, an inhibition at 2 µM (STK33; 2 μM) of 80.5% and an inhibition at 0.05 µM (CDK2; 50 nM) of 12.6%. For the same molecule, the inhibition at 2 µM (CDK2; 2 μM) was 49.1%, the inhibition at 0.05 µM (MPSK1; 50 nM) was 22% and the inhibition at 2 µM (MPSK1; 2 μM) was 49.5%. It also gave an inhibition at 2 µM (CLK2) of 97.8%, an inhibition at 0.05 µM (YSK1) of 13.5% and an IC50 (DYRK4) of 15200 nM. For the same molecule, the inhibition at 0.05 µM (MSK2; 50 nM) was 13.3%, the inhibition at 2 µM (MSK2; 2 μM) was 75.5% and the inhibition at 0.05 µM (PKN3; 50 nM) was 18.6%. It also gave an inhibition at 2 µM (PKN3; 2 μM) of 80.4%, an inhibition at 0.05 µM (HASPIN; 50 nM) of 25.6% and an inhibition at 2 µM (HASPIN; 2 μM) of 88.4%. For the same molecule, the IC50 (ERK1) was 800 to 6600 nM, the IC50 (ERK1; read-out: ERK1 IC50, 10 μM ATP) was 5720 nM and the inhibition at 0.05 µM (RAF1; 50 nM) was 21.6%. It also gave an inhibition at 2 µM (RAF1; 2 μM) of 47%, an inhibition at 2 µM (PKCθ) of 97.9% and an inhibition at 0.05 µM (BMPR2; 50 nM) of 21.3%. It also gave an inhibition at 2 µM (BMPR2; 2 μM) of 74%, an inhibition at 0.05 µM (RSK2; 50 nM) of 12.3% and an inhibition at 2 µM (RSK2; 2 μM) of 66%. The IC50 (ERBB2/HER2) was 18000 to 65000 nM, the IC50 (ERBB2/HER2; read-out: ERBB2/HER2 IC50, 10 μM ATP) was 26400 nM and the inhibition at 0.05 µM (DYRK1B; 50 nM, 10 μM ATP) was 22.7%. The inhibition at 2 µM (DYRK1B; 2 μM, 10 μM ATP) was 95.3%, the IC50 (DYRK1B; 10 μM ATP, read-out: DYRK1B IC50) was 134 nM and the “DYRK1B Differential (as compared to PKG1a)” value (DYRK1B; IC50 (kinase)/IC50 (PKG1a)) was 11.87. The IC50 (DYRK1B; Table 4 dose-response, read-out: DYRK1B IC50 Values) was 135 nM, the inhibition at 0.05 µM (CDK9) was 12.4% and the inhibition at 0.05 µM (BRAF; 50 nM) was 12.9%. The inhibition at 2 µM (BRAF; 2 μM) was 35.1%, the IC50 (AKT1) was 43 to 189 nM and the inhibition at 0.05 µM (AKT1; read-out: AKT1 % inhibition) was 25.1%. For the same molecule, the inhibition at 2 µM (AKT1; read-out: AKT1 % inhibition) was 83.7%, the IC50 (AKT1; read-out: AKT1 IC50, 10 μM ATP) was 179 nM and the inhibition at 0.05 µM (DCAMKL1; 50 nM) was 12.8%. The inhibition at 2 µM (DCAMKL1; 2 μM) was 14.2%, the IC50 (FLT1/VEGFR1) was 18000 to 65000 nM and the IC50 (FLT1/VEGFR1; read-out: FLT1/VEGFR1 IC50, 10 μM ATP) was 18800 nM.
